Among the data in US9024021B2, “Diarylacetylene hydrazide containing tyrosine kinase inhibitors” (Sun Pharma Advanced Research Company Ltd., priority 2011, dated 2015) are inhibition values, retold here.

The target of experiment [1] is T1, Abl (Q252H) (human) (Homo sapiens, UniProt P00519, Q252H).
T1 construct: purchased Millipore Pharma Services (contract assay, UK pharmacology laboratory)
In words: Mutated Abl kinase inhibition (in vitro), Q252H. The experiment is classed as biochemical. As to conditions: 100 nM. As to the method: (§1) The kinase assays were performed by Millipore Pharma Services at their UK pharmacology laboratory.
(§2) In a final reaction volume of 25 μL, Abl (human) (5-10 mU) is incubated with 8 mM MOPS pH7.0, 0.2 mM EDTA, 50 μM […], 10 mM Mg(OAc)2 and [γ-^33P-ATP] [specific activity approx. 500 cpm/pmol, concentration as required). The reaction is initiated by the addition of the MgATP mix. After incubation for 40 minutes at room temperature, the reaction is stopped by the addition of 5 μL of a 3% phosphoric acid solution. 10 μL of the reaction is then spotted onto a P30 filtermat and washed three times for 5 minutes in 75 mM phosphoric acid and once in methanol prior to drying and scintillation counting.
(§3) The procedure remains exactly the same as described earlier for Abl kinase, the Abl (human) kinase being replaced by mutated Abl (Q252H) (human), Abl (Y253F) (human), Abl (T315I) (human), Abl (M351T) (human) and Abl (H396P) (human) kinases.
(§4) Within each kinase assay, percent of control values were calculated for each test compound raw data point based on mean minimum (0%) and maximum (100%) controls (n=4 per control) for that kinase (sample−mean minimum/mean maximum−mean minimum×100%). Percent inhibition was calculated from these values (100−mean percent of control).

Experiment [2] has as its target T2, Abl (Y253F) (human) (Homo sapiens, UniProt P00519, Y253F).
T2 construct: purchased Millipore Pharma Services (contract assay, UK pharmacology laboratory)
In words: Mutated Abl kinase inhibition (in vitro), Y253F. The experiment is classed as biochemical. As to conditions: 100 nM. The protocol:
as §1, §2, §3, §4

Experiment [3] addresses T3, Abl (M351T) (human) (Homo sapiens, UniProt P00519, M351T).
T3 construct: purchased Millipore Pharma Services (contract assay, UK pharmacology laboratory)
Put plainly: Mutated Abl kinase inhibition (in vitro), M351T. Type of experiment: biochemical. As to conditions: 100 nM. As to the method:
as §1, §2, §3, §4

Experiment [4] addresses T4, Abl (H396P) (human) (Homo sapiens, UniProt P00519, H396P).
T4 construct: purchased Millipore Pharma Services (contract assay, UK pharmacology laboratory)
In words: Mutated Abl kinase inhibition (in vitro), H396P. Type of experiment: biochemical. As to conditions: 100 nM. As to the method: as §1, §2, §3, §4

For experiment [5], the target named is T5, Lck (human) (Homo sapiens, UniProt P06239).
T5 construct: purchased Millipore Pharma Services (contract assay, UK pharmacology laboratory)
Put plainly: Lck kinase inhibition (in vitro). The experiment is classed as biochemical. As to conditions: read-out: % Inhibition at 100 nM Lck. As to the method: as §1
In a final reaction volume of 25 μL, Lck (human) (5-10 mU) is incubated with 50 mM Tris pH 7.5, 0.1 mM EGTA, 0.1 mM Na3VO4, 250 μM […] [Cdc2 peptide), 10 mM Mg(OAc)2 and [γ-^33P-ATP] [specific activity approx. 500 cpm/pmol, concentration as required). The reaction is initiated by the addition of the MgATP mix. After incubation for 40 minutes at room temperature, the reaction is stopped by the addition of 5 μL of a 3% phosphoric acid solution. 10 μL of the reaction is then spotted onto a P30 filtermat and washed three times for 5 minutes in 75 mM phosphoric acid and once in methanol prior to drying and scintillation counting.
as §4

In experiment [6] the target is T6, Lyn (human) (Homo sapiens, UniProt P07948).
T6 construct: purchased Millipore Pharma Services (contract assay, UK pharmacology laboratory)
In words: Lyn kinase inhibition (in vitro). Type of experiment: biochemical. As to conditions: read-out: % Inhibition at 100 nM Lyn. The protocol:
as §1
In a final reaction volume of 25 μL, Lyn (human) (5-10 mU) is incubated with 50 mM Tris pH 7.5, 0.1 mM EGTA, 0.1 mM Na3VO4, 0.1% β-mercaptoethanol, 0.1 mg/ml poly(Glu, tyr) 4:1, 10 mM Mg(OAc)2 and [γ-^33P-ATP] [specific activity approx. 500 cpm/pmol, concentration as required). The reaction is initiated by the addition of the MgATP mix. After incubation for 40 minutes at room temperature, the reaction is stopped by the addition of 5 μL of a 3% phosphoric acid solution. 10 μL of the reaction is then spotted onto a filtermat A and washed three times for 5 minutes in 75 mM phosphoric acid and once in methanol prior to drying and scintillation counting.
as §4

In experiment [7] the test system is K562 cells. In words: In-vitro cell proliferation assay (MTT), K562 cells. As to conditions: Homo sapiens; for inhibition at 0.01 µM: 10 nM; for inhibition at 0.1 µM: 100 nM. The experiment is classed as cell-based. As to the method:
In-Vitro Cell Proliferation Assay
K562/U937 cells (2×10^4 per well) were incubated with the test compounds/vehicle in a total volume of 200 μL of media at 37° C. with 5% CO2. […] The cells were incubated overnight at 37° C. with 5% CO2. On Day 5 the optical density was measured at 570 nm with 630 nm as reference wavelength. The optical density in the vehicle treated wells was compared with that of the test compound treated wells.

The target in experiment [8] is T7, Abl (T315I) (human) (Homo sapiens, UniProt P00519, T315I).
T7 construct: purchased Millipore Pharma Services (contract assay, UK pharmacology laboratory)
In words: Abl-T315I kinase inhibition (in vitro). The experiment is classed as biochemical. As to conditions: for inhibition at 0.1 µM: 100 nM; for inhibition at 1 µM: 1000 nM; for inhibition at 0.003 µM: 3 nM; for inhibition at 0.03 µM: 30 nM. As to the method: as §1
[specific activity approx. 500 cpm/pmol, concentration as required). The reaction is initiated by the addition of the MgATP mix. After incubation for 40 minutes at room temperature, the reaction is stopped by the addition of 5 μL of a 3% phosphoric acid solution. 10 μL of the reaction is then spotted onto a P30 filtermat and washed three times for 5 minutes in 75 mM phosphoric acid and once in methanol prior to drying and scintillation counting.
as §4

T5 sequence (P06239 whole entry): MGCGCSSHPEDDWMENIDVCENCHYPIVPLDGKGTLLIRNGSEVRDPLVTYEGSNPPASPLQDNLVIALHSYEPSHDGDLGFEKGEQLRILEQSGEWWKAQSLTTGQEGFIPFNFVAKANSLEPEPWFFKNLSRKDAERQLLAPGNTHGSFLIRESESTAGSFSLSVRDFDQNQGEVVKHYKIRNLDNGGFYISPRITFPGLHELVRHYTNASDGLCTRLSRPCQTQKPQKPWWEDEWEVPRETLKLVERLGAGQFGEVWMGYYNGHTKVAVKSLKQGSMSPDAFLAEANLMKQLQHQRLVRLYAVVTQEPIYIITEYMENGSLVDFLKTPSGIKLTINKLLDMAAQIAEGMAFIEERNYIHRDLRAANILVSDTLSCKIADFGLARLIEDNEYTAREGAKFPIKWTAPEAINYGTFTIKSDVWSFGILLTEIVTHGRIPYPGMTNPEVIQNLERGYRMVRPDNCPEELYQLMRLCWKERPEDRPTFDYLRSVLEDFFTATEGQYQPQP
T6 sequence (P07948 whole entry): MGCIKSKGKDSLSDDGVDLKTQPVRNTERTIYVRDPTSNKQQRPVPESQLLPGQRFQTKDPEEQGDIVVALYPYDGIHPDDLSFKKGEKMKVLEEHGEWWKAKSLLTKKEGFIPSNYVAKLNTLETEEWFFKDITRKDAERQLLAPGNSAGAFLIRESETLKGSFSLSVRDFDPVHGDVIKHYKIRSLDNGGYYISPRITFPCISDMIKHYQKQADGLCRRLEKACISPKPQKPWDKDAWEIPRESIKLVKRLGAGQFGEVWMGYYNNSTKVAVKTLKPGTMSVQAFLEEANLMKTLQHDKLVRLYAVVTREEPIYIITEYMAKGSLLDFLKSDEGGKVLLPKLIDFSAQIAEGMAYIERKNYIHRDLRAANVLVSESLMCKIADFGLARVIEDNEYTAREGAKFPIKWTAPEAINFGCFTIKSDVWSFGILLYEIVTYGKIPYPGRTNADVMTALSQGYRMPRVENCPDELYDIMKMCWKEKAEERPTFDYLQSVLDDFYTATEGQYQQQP

With `Cc1ccc(C(=O)NNC(=O)c2c(C)cccc2Cl)cc1C#Cc1cnc2ccccc2c1` [I.2, N′-(2-Chloro-6-methylbenzoyl)-4-methyl-3-[2-(3-quinolyl)ethynyl]benzohydrazide], the inhibition at 0.1 µM came out at 100% in experiment [1]; 101% in experiment [2]; 100% in experiment [3]; 99% in experiment [4]; 84% in experiment [5]; 97% in experiment [6].

With `Cc1ccc(C(=O)NNC(=O)c2c(C)cccc2Cl)cc1C#Cc1cnc2cccnn12` [I.16, N′-(2-Chloro-6-methylbenzoyl)-3-[2-(imidazo[1,2-b]pyridazin-3-yl)ethynyl]-4-methylbenzohydrazide], the inhibition at 0.01 µM in experiment [7] came out at 104%. Further, the inhibition at 0.1 µM in experiment [7] stood at 102%; in experiment [8], 70%; in experiment [1] it was 98%; in experiment [2] it was 98%; in experiment [3], 100%; in experiment [4], 99%. Also, the inhibition at 0.1 µM in experiment [5] stood at 65%; in experiment [6] it was 74%. Further, the inhibition at 1 µM in experiment [8] is 93%.

`Cc1ccc(C(=O)NNC(=O)c2c(C)cccc2I)cc1C#Cc1cnc2ccccc2c1` [I.4, N′-(2-Iodo-6-methylbenzoyl)-4-methyl-3-[2-(3-quinolyl)ethynyl]benzohydrazide]: the inhibition at 0.01 µM in experiment [7] is 102%. For the same compound, the inhibition at 0.1 µM in experiment [7] turned out to be 100%; in experiment [8], 90%; in experiment [1], 100%; in experiment [2], 98%; in experiment [3], 99%; in experiment [4], 100%. For the same compound, the figures for the inhibition at 0.1 µM in experiment [5] and in experiment [6] were 81% and 97%, respectively. Further, in experiment [8], the inhibition at 1 µM is 100%.

`Cc1ccc(C(=O)NNC(=O)c2c(C)cccc2F)cc1C#Cc1cnc2ccccc2c1` [I.14, N′-(2-Fluoro-6-methylbenzoyl)-4-methyl-3-[2-(3-quinolyl)ethynyl]benzohydrazide]: in experiment [7], the inhibition at 0.01 µM is 68.5% and the inhibition at 0.1 µM was determined as 71.7%. In experiment [8], the inhibition at 0.003 µM stood at 1% and the inhibition at 0.03 µM worked out at 60%.

Turning to `Cc1ccc(C(=O)NNC(=O)c2c(F)cccc2C(F)(F)F)cc1C#Cc1cnc2ccccc2c1` [I.25, N′-[2-Fluoro-6-(trifluoromethyl)benzoyl]-4-methyl-3-[2-(3-quinolyl)ethynyl]benzohydrazide], in experiment [7], the inhibition at 0.01 µM stood at 71.5% and the inhibition at 0.1 µM was found to be 73%. Besides, in experiment [8], the inhibition at 0.003 µM worked out at 26% and the inhibition at 0.03 µM was found to be 65%.
